Data: the Kinase Knowledgebase extract (Sharma et al. 2016)

Target: CDK2 (human) (UniProt P24941)
Assay: Enzyme Assay

`CCC(CC)c1[nH]ncc1-c1ccnc(NCc2ccccc2C)c1` and `CCC(C)c1[nH]ncc1-c1ccnc(NCc2ccccc2C)c1` (stereo not drawn) cannot be ordered by IC50: under 5 µM for the first, under 5 µM for the second.

`Cc1n[nH]cc1-c1ccnc(NC2CCN(c3ccccc3)CC2)n1` and `Cc1n[nH]cc1-c1ccnc(NC2Cc3ccccc3C2)n1` cannot be ordered by IC50: under 5 µM for the first, under 5 µM for the second.

`CC(C)COCCCNc1nccc(-c2c[nH]nc2C(C)C)n1` and `CCC(C)Nc1nccc(-c2c[nH]nc2C(C)C)n1` (stereo not drawn) cannot be ordered by IC50: under 5 µM for the first, under 0.5 µM for the second.

`CC(CCc1ccccc1)Nc1nccc(-c2c[nH]nc2C(C)C)n1` (stereo not drawn) and `Cc1ccccc1CNc1nccc(-c2c[nH]nc2C(C)C)n1` cannot be ordered by IC50: under 5 µM for the first, under 1 µM for the second.

`FC(F)(F)c1ccccc1CNc1cc(-c2cn[nH]c2C2CCCC2)ccn1` and `CC(C)c1[nH]ncc1-c1ccnc(NCc2ccccc2C(F)(F)F)c1` cannot be ordered by IC50: under 5 µM for the first, under 5 µM for the second.

`CC(C)c1[nH]ncc1-c1ccnc(Nc2ccccc2)c1` and `CC(C)c1[nH]ncc1-c1ccnc(NCCOc2ccccc2)c1` cannot be ordered by IC50: under 0.05 µM for the first, under 10 µM for the second.

`CC(C)c1n[nH]cc1-c1ccnc(N[C@H]2CCCc3ccccc32)n1` and `CC(C)c1n[nH]cc1-c1ccnc(NC2CCCc3ccccc32)n1` (stereo not drawn) cannot be ordered by IC50: under 0.5 µM for the first, under 1 µM for the second.

`Cc1n[nH]cc1-c1ccnc(NCC2CC2)n1` and `Cc1n[nH]cc1-c1ccnc(NCC2CCCCC2)n1` cannot be ordered by IC50: under 10 µM for the first, under 10 µM for the second.

`Cc1n[nH]cc1-c1ccnc(NC2CC2)n1` and `Cc1n[nH]cc1-c1ccnc(NC2CCCC2)n1` cannot be ordered by IC50: under 10 µM for the first, under 5 µM for the second.

`CC(C)c1[nH]ncc1-c1ccnc(NC2CCCCCC2)c1` and `CC(C)c1[nH]ncc1-c1ccnc(NC2CCC2)c1` cannot be ordered by IC50: under 0.5 µM for the first, under 0.5 µM for the second.

`CC(C)c1[nH]ncc1-c1ccnc(NCC2CCCCCC2)c1` and `c1cc(-c2cn[nH]c2C2CCCC2)cc(NCC2CC2)n1` cannot be ordered by IC50: under 5 µM for the first, under 5 µM for the second.

`CC(C)c1n[nH]cc1-c1ccnc(NCc2ccc(N(C)C)cc2)n1` and `Cc1n[nH]cc1-c1ccnc(NCc2ccc(F)cc2)n1` cannot be ordered by IC50: under 5 µM for the first, under 10 µM for the second.

`CC(C)c1[nH]ncc1-c1ccnc(NCCCO)c1` and `CCCNc1cc(-c2cn[nH]c2C(C)C)ccn1` cannot be ordered by IC50: under 5 µM for the first, under 5 µM for the second.

`CC(C)c1n[nH]cc1-c1ccnc(NCCCN(C)c2ccccc2)n1` and `CC(C)c1n[nH]cc1-c1ccnc(N[C@H](C)c2ccccn2)n1` cannot be ordered by IC50: under 5 µM for the first, under 5 µM for the second.

`CCC(C)c1[nH]ncc1-c1ccnc(NC2CCc3ccccc32)c1` (stereo not drawn) and `CC(C)c1[nH]ncc1-c1ccnc(NC2CCc3ccccc32)c1` (stereo not drawn) cannot be ordered by IC50: under 5 µM for the first, under 5 µM for the second.

`Cc1n[nH]cc1-c1ccnc(NCCCn2ccnc2)n1` and `CC(=O)NCCNc1nccc(-c2c[nH]nc2C)n1` cannot be ordered by IC50: under 10 µM for the first, under 15 µM for the second.

`CC(C)c1[nH]ncc1-c1ccnc(NCCc2ccccn2)c1` and `CC(C)c1[nH]ncc1-c1ccnc(NCCc2cccnc2)c1` cannot be ordered by IC50: under 5 µM for the first, under 5 µM for the second.

`c1ccc(CCNc2cc(-c3cn[nH]c3C3CCCC3)ccn2)cc1` and `c1cncc(CCNc2cc(-c3cn[nH]c3C3CCCC3)ccn2)c1` cannot be ordered by IC50: under 5 µM for the first, under 5 µM for the second.

`CC(C)c1[nH]ncc1-c1ccnc(NC(CO)C(C)C)c1` (stereo not drawn) and `COCCNc1cc(-c2cn[nH]c2C(C)C)ccn1` cannot be ordered by IC50: under 15 µM for the first, under 10 µM for the second.

`CC(C)c1n[nH]c(Br)c1-c1ccnc(NC2CCN(C)CC2)n1` and `CC(C)c1nn(C)cc1-c1ccnc(NC2CCN(C)CC2)n1` cannot be ordered by IC50: under 5 µM for the first, under 5 µM for the second.

`c1cc(-c2cn[nH]c2C2CCCC2)cc(NC2CCCCCC2)n1` and `CC(C)CNc1cc(-c2cn[nH]c2C2CCCC2)ccn1` cannot be ordered by IC50: under 1 µM for the first, under 1 µM for the second.

`Cc1n[nH]cc1-c1ccnc(NCC(C)C)n1` and `COc1ccc(CNc2nccc(-c3c[nH]nc3C)n2)cc1` cannot be ordered by IC50: under 5 µM for the first, under 15 µM for the second.

`Cc1cc(C)n(CCNc2nccc(-c3c[nH]nc3C(C)C)n2)n1` and `CC(C)c1n[nH]cc1-c1ccnc(NC2CC(C)(C)c3ccccc32)n1` (stereo not drawn) cannot be ordered by IC50: under 15 µM for the first, under 5 µM for the second.

`Cc1n[nH]cc1-c1ccnc(NCC2CCCCCC2)n1` and `Cc1n[nH]cc1-c1ccnc(NC2CCCCCC2)n1` cannot be ordered by IC50: under 15 µM for the first, under 5 µM for the second.

`CC(C)c1n[nH]cc1-c1ccnc(NC2Cc3ccccc3C2)n1` and `CC(C)c1n[nH]cc1-c1ccnc(N[C@@H]2CCc3ccccc32)n1` cannot be ordered by IC50: under 0.5 µM for the first, under 5 µM for the second.

`CCC(CC)c1[nH]ncc1-c1ccnc(NC2CCc3ccccc32)c1` (stereo not drawn) and `CC(C)c1[nH]ncc1-c1ccnc(NC2CC2)c1` cannot be ordered by IC50: under 5 µM for the first, under 1 µM for the second.

`Cc1n[nH]cc1-c1ccnc(NCCc2c[nH]c3ccccc23)n1` and `Cc1n[nH]cc1-c1ccnc(NCc2ccc3c(c2)OCO3)n1` cannot be ordered by IC50: under 10 µM for the first, under 10 µM for the second.

`Cc1cccc(CNc2cc(-c3cn[nH]c3C(C)C)ccn2)c1` and `CC(C)c1[nH]ncc1-c1ccnc(NCc2ccc(F)cc2)c1` cannot be ordered by IC50: under 5 µM for the first, under 5 µM for the second.

`Cc1cnc(NC2CCN(C)CC2)nc1-c1c[nH]nc1C(C)C` and `CC(C)c1n[nH]cc1-c1ccnc(N[C@H]2CCc3ccccc32)n1` cannot be ordered by IC50: under 5 µM for the first, under 0.5 µM for the second.

`CC(C)c1[nH]ncc1-c1ccnc(NCc2ccncc2)c1` and `COc1ccc(CNc2cc(-c3cn[nH]c3C(C)C)ccn2)cc1` cannot be ordered by IC50: under 5 µM for the first, under 5 µM for the second.

`CC(C)c1[nH]ncc1-c1ccnc(NCCN2CCOCC2)c1` and `CC(C)c1[nH]ncc1-c1ccnc(NCc2ccco2)c1` cannot be ordered by IC50: under 10 µM for the first, under 5 µM for the second.

Work on `CC(C)c1n[nH]cc1-c1ccnc(NC2CCc3cc(Cl)ccc32)n1` (stereo not drawn) yielded an IC50 of under 0.5 µM.
